Legend:
[1] = Cytotoxicity against mouse RAW264.7 cells assessed as cell viability at 40 uM measured after 24 hrs by MTT assay relative to control; assay type: toxicity, cell-based; conditions: read-out: Activity
[2] = test system: RAW264.7; assay: Anti inflammatory activity in LPS-induced mouse RAW264.7 cells assessed as inhibition of NO production at 5 uM preincubated with compound for 2 hrs followed by LPS stimulation and measured after 24 hrs by griess reagent based assay relative to control; assay type: functional; conditions: time 26 hrs
[3] = test system: RAW264.7; assay: Anti inflammatory activity in LPS-induced mouse RAW264.7 cells assessed as inhibition of NO production at 2.5 uM preincubated with compound for 2 hrs followed by LPS stimulation and measured after 24 hrs by griess reagent based assay relative to control; assay type: functional; conditions: time 26 hrs
[4] = test system: RAW264.7; assay: Anti inflammatory activity in LPS-induced mouse RAW264.7 cells assessed as inhibition of NO production preincubated with compound for 2 hrs followed by LPS stimulation and measured after 24 hrs by griess reagent based assay; assay type: functional, cell-based

CC(=O)O[C@H]1C[C@@]2(C)[C@@H](C[C@@H](O)[C@H]3[C@@]4(C)CC[C@@H](O)[C@@H](C)[C@@H]4CC[C@@]32C)/C1=C(\CCC=C(C)C)C(=O)NOc1ccc([N+](=O)[O-])cc1[N+](=O)[O-]
viability at 24 h, 40 µM [1]: 15.2%

CC(=O)O[C@H]1C[C@@]2(C)[C@@H](C[C@@H](O)[C@H]3[C@@]4(C)CC[C@@H](OC(=O)c5ccccc5C(=O)NOC5CCCCO5)[C@@H](C)[C@@H]4CC[C@@]32C)/C1=C(\CCC=C(C)C)C(=O)OCc1ccccc1 (some centres undefined)
inhibition at 5 µM [2]: 19.4%
inhibition at 2.5 µM [3]: 7.93%
viability at 24 h, 40 µM [1]: 94.1%

CC(=O)O[C@H]1C[C@@]2(C)[C@@H](C[C@@H](O)[C@H]3[C@@]4(C)CC[C@@H](OC(=O)c5ccccc5C(=O)NOc5ccc([N+](=O)[O-])cc5)[C@@H](C)[C@@H]4CC[C@@]32C)/C1=C(\CCC=C(C)C)C(=O)OCc1ccccc1
viability at 24 h, 40 µM [1]: 1.66%

CC(=O)O[C@H]1C[C@@]2(C)[C@@H](C[C@@H](O)[C@H]3[C@@]4(C)CC[C@@H](O)[C@@H](C)[C@@H]4CC[C@@]32C)/C1=C(\CCC=C(C)C)C(=O)NOC1CCCCO1 (some centres undefined)
viability at 24 h, 40 µM [1]: 2.83%

CC(=O)O[C@H]1C[C@@]2(C)[C@@H](C[C@@H](O)[C@H]3[C@@]4(C)CC[C@@H](OC(=O)CCSSCCC(=O)NOCc5ccccc5)[C@@H](C)[C@@H]4CC[C@@]32C)/C1=C(\CCC=C(C)C)C(=O)OCc1ccccc1
inhibition at 5 µM [2]: 12.5%
inhibition at 2.5 µM [3]: 8.17%
viability at 24 h, 40 µM [1]: 98.4%

O=C(Nc1ccc(I)cc1)c1ccc([N+](=O)[O-])o1
IC50 [4]: 1.14 µM

CCN1CCN(C(=O)c2ccccc2C(=O)O[C@@H]2CC[C@@]3(C)[C@@H](CC[C@@]4(C)[C@H]3[C@H](O)C[C@H]3/C(=C(\CCC=C(C)C)C(=O)OCc5ccccc5)[C@@H](OC(C)=O)C[C@@]34C)[C@@H]2C)CC1
viability at 24 h, 40 µM [1]: 5.62%

CC(=O)O[C@H]1C[C@@]2(C)[C@@H](C[C@@H](O)[C@H]3[C@@]4(C)CC[C@@H](OC(=O)CCSSCCC(=O)NOC(=O)c5ccc([N+](=O)[O-])cc5)[C@@H](C)[C@@H]4CC[C@@]32C)/C1=C(\CCC=C(C)C)C(=O)OCc1ccccc1
inhibition at 5 µM [2]: 44.8%
inhibition at 2.5 µM [3]: 33.3%
viability at 24 h, 40 µM [1]: 91%
IC50 [4]: 10 µM

CC(=O)O[C@H]1C[C@@]2(C)[C@@H](C[C@@H](O)[C@H]3[C@@]4(C)CC[C@@H](OC(=O)CCSSCCC(=O)N(C)O)[C@@H](C)[C@@H]4CC[C@@]32C)/C1=C(\CCC=C(C)C)C(=O)OCc1ccccc1
viability at 24 h, 40 µM [1]: 48.8%

CC(=O)O[C@H]1C[C@@]2(C)[C@@H](C[C@@H](O)[C@H]3[C@@]4(C)CC[C@@H](OC(=O)CCSSCCC(=O)NOC(C)(C)C)[C@@H](C)[C@@H]4CC[C@@]32C)/C1=C(\CCC=C(C)C)C(=O)OCc1ccccc1
viability at 24 h, 40 µM [1]: 76%

CC(=O)O[C@H]1C[C@@]2(C)[C@@H](C[C@@H](O)[C@H]3[C@@]4(C)CC[C@@H](OC(=O)CCSSCCC(=O)NOC5CCCCO5)[C@@H](C)[C@@H]4CC[C@@]32C)/C1=C(\CCC=C(C)C)C(=O)OCc1ccccc1 (some centres undefined)
inhibition at 5 µM [2]: 65.2%
inhibition at 2.5 µM [3]: 55.2%
viability at 24 h, 40 µM [1]: 90.2%
IC50 [4]: 2.62 µM

CC(=O)O[C@H]1C[C@@]2(C)[C@@H](C[C@@H](O)[C@H]3[C@@]4(C)CC[C@@H](OC(=O)c5ccccc5C(=O)n5cccn5)[C@@H](C)[C@@H]4CC[C@@]32C)/C1=C(\CCC=C(C)C)C(=O)OCc1ccccc1
viability at 24 h, 40 µM [1]: 76.6%

CC(=O)O[C@H]1C[C@@]2(C)[C@@H](C[C@@H](O)[C@H]3[C@@]4(C)CC[C@@H](OC(=O)c5ccccc5C(=O)N5CCN(C)CC5)[C@@H](C)[C@@H]4CC[C@@]32C)/C1=C(\CCC=C(C)C)C(=O)OCc1ccccc1
inhibition at 5 µM [2]: 14.7%
inhibition at 2.5 µM [3]: 8.43%
viability at 24 h, 40 µM [1]: 108%

CC(=O)O[C@H]1C[C@@]2(C)[C@@H](C[C@@H](O)[C@H]3[C@@]4(C)CC[C@@H](OC(=O)c5ccccc5C(=O)N5CCOCC5)[C@@H](C)[C@@H]4CC[C@@]32C)/C1=C(\CCC=C(C)C)C(=O)OCc1ccccc1
inhibition at 5 µM [2]: 44.5%
inhibition at 2.5 µM [3]: 28.4%
viability at 24 h, 40 µM [1]: 102%
IC50 [4]: 7.61 µM

CC(=O)O[C@H]1C[C@@]2(C)[C@@H](C[C@@H](O)[C@H]3[C@@]4(C)CC[C@@H](O)[C@@H](C)[C@@H]4CC[C@@]32C)/C1=C(\CCC=C(C)C)C(=O)NOc1ccc([N+](=O)[O-])cc1
viability at 24 h, 40 µM [1]: 56.5%

CC(=O)O[C@H]1C[C@@]2(C)[C@@H](C[C@@H](O)[C@H]3[C@@]4(C)CC[C@@H](OC(=O)c5ccccc5C(=O)NOCc5ccccc5)[C@@H](C)[C@@H]4CC[C@@]32C)/C1=C(\CCC=C(C)C)C(=O)OCc1ccccc1
inhibition at 5 µM [2]: 11%
inhibition at 2.5 µM [3]: 8.93%
viability at 24 h, 40 µM [1]: 96%

CON(C)C(=O)CCSSCCC(=O)O[C@@H]1CC[C@@]2(C)[C@@H](CC[C@@]3(C)[C@H]2[C@H](O)C[C@H]2/C(=C(\CCC=C(C)C)C(=O)OCc4ccccc4)[C@@H](OC(C)=O)C[C@@]23C)[C@@H]1C
inhibition at 5 µM [2]: 59.3%
inhibition at 2.5 µM [3]: 54.6%
viability at 24 h, 40 µM [1]: 90.2%
IC50 [4]: 2.5 µM

CC(=O)O[C@H]1C[C@@]2(C)[C@@H](C[C@@H](O)[C@H]3[C@@]4(C)CC[C@@H](O)[C@@H](C)[C@@H]4CC[C@@]32C)/C1=C(\CCC=C(C)C)C(=O)NOCc1ccccc1
viability at 24 h, 40 µM [1]: 0.07%

CC(=O)O[C@H]1C[C@@]2(C)[C@@H](C[C@@H](O)[C@H]3[C@@]4(C)CC[C@@H](O)[C@@H](C)[C@@H]4CC[C@@]32C)/C1=C(\CCC=C(C)C)C(=O)NOC(C)(C)C
viability at 24 h, 40 µM [1]: 84.3%

CONC(=O)/C(CCC=C(C)C)=C1\[C@@H](OC(C)=O)C[C@@]2(C)[C@H]1C[C@@H](O)[C@H]1[C@@]3(C)CC[C@@H](O)[C@@H](C)[C@@H]3CC[C@@]12C
inhibition at 5 µM [2]: 18.3%
inhibition at 2.5 µM [3]: 16.5%
viability at 24 h, 40 µM [1]: 91.4%

CC(=O)O[C@H]1C[C@@]2(C)[C@@H](C[C@@H](O)[C@H]3[C@@]4(C)CC[C@@H](OC(=O)CCSSCCC(=O)NOc5ccc([N+](=O)[O-])cc5)[C@@H](C)[C@@H]4CC[C@@]32C)/C1=C(\CCC=C(C)C)C(=O)OCc1ccccc1
inhibition at 5 µM [2]: 28.4%
inhibition at 2.5 µM [3]: 14.9%
viability at 24 h, 40 µM [1]: 103%

CONC(=O)CCSSCCC(=O)O[C@@H]1CC[C@@]2(C)[C@@H](CC[C@@]3(C)[C@H]2[C@H](O)C[C@H]2/C(=C(\CCC=C(C)C)C(=O)OCc4ccccc4)[C@@H](OC(C)=O)C[C@@]23C)[C@@H]1C
viability at 24 h, 40 µM [1]: 2.32%

CC(=O)O[C@H]1C[C@@]2(C)[C@@H](C[C@@H](O)[C@H]3[C@@]4(C)CC[C@@H](OC(=O)c5ccccc5C(=O)NOC(C)(C)C)[C@@H](C)[C@@H]4CC[C@@]32C)/C1=C(\CCC=C(C)C)C(=O)OCc1ccccc1
inhibition at 5 µM [2]: 25.9%
inhibition at 2.5 µM [3]: 13.5%
viability at 24 h, 40 µM [1]: 98.3%

C=CCONC(=O)c1ccccc1C(=O)O[C@@H]1CC[C@@]2(C)[C@@H](CC[C@@]3(C)[C@H]2[C@H](O)C[C@H]2/C(=C(\CCC=C(C)C)C(=O)OCc4ccccc4)[C@@H](OC(C)=O)C[C@@]23C)[C@@H]1C
inhibition at 5 µM [2]: 39.3%
inhibition at 2.5 µM [3]: 24.7%
viability at 24 h, 40 µM [1]: 101%
IC50 [4]: 8.92 µM

CC(=O)O[C@H]1C[C@@]2(C)[C@@H](C[C@@H](O)[C@H]3[C@@]4(C)CC[C@@H](O)[C@@H](C)[C@@H]4CC[C@@]32C)/C1=C(\CCC=C(C)C)C(=O)O [FUSIDIC ACID]
inhibition at 5 µM [2]: 14.9%
inhibition at 2.5 µM [3]: 2.18%
viability at 24 h, 40 µM [1]: 91.3%

CC(=O)O[C@H]1C[C@@]2(C)[C@@H](C[C@@H](O)[C@H]3[C@@]4(C)CC[C@@H](OC(=O)c5ccccc5C(=O)n5ccnc5)[C@@H](C)[C@@H]4CC[C@@]32C)/C1=C(\CCC=C(C)C)C(=O)OCc1ccccc1
viability at 24 h, 40 µM [1]: 59.5%

CC(=O)O[C@H]1C[C@@]2(C)[C@@H](C[C@@H](O)[C@H]3[C@@]4(C)CC[C@@H](OC(=O)CCSSCCC(=O)N(O)C5CCCCC5)[C@@H](C)[C@@H]4CC[C@@]32C)/C1=C(\CCC=C(C)C)C(=O)OCc1ccccc1
viability at 24 h, 40 µM [1]: 80.1%

CONC(=O)c1ccccc1C(=O)O[C@@H]1CC[C@@]2(C)[C@@H](CC[C@@]3(C)[C@H]2[C@H](O)C[C@H]2/C(=C(\CCC=C(C)C)C(=O)OCc4ccccc4)[C@@H](OC(C)=O)C[C@@]23C)[C@@H]1C
inhibition at 5 µM [2]: 27%
inhibition at 2.5 µM [3]: 17.3%
viability at 24 h, 40 µM [1]: 106%

CC(=O)O[C@H]1C[C@@]2(C)[C@@H](C[C@@H](O)[C@H]3[C@@]4(C)CC[C@@H](O)[C@@H](C)[C@@H]4CC[C@@]32C)/C1=C(\CCC=C(C)C)C(=O)NOC(=O)c1ccc([N+](=O)[O-])cc1
viability at 24 h, 40 µM [1]: 70.8%

CON(C)C(=O)c1ccccc1C(=O)O[C@@H]1CC[C@@]2(C)[C@@H](CC[C@@]3(C)[C@H]2[C@H](O)C[C@H]2/C(=C(\CCC=C(C)C)C(=O)OCc4ccccc4)[C@@H](OC(C)=O)C[C@@]23C)[C@@H]1C
inhibition at 5 µM [2]: 44.5%
inhibition at 2.5 µM [3]: 24%
viability at 24 h, 40 µM [1]: 100%
IC50 [4]: 6.92 µM

CON(C)C(=O)/C(CCC=C(C)C)=C1\[C@@H](OC(C)=O)C[C@@]2(C)[C@H]1C[C@@H](O)[C@H]1[C@@]3(C)CC[C@@H](O)[C@@H](C)[C@@H]3CC[C@@]12C
viability at 24 h, 40 µM [1]: 55.5%

CC(=O)O[C@H]1C[C@@]2(C)[C@@H](C[C@@H](O)[C@H]3[C@@]4(C)CC[C@@H](OC(=O)c5ccccc5C(=O)N5CCCCC5)[C@@H](C)[C@@H]4CC[C@@]32C)/C1=C(\CCC=C(C)C)C(=O)OCc1ccccc1
inhibition at 5 µM [2]: 30.8%
inhibition at 2.5 µM [3]: 16.9%
viability at 24 h, 40 µM [1]: 103%
IC50 [4]: 11.6 µM

C=CCONC(=O)/C(CCC=C(C)C)=C1\[C@@H](OC(C)=O)C[C@@]2(C)[C@H]1C[C@@H](O)[C@H]1[C@@]3(C)CC[C@@H](O)[C@@H](C)[C@@H]3CC[C@@]12C
inhibition at 5 µM [2]: 21.3%
inhibition at 2.5 µM [3]: 17.7%
viability at 24 h, 40 µM [1]: 90.8%

— ChEMBL document CHEMBL5247586, “Discovery of fusidic acid derivatives as novel STING inhibitors for treatment of sepsis” (Eur J Med Chem, 2022)
